Reference: PMC6520732, “Exploring the Antiangiogenic Potential of Solomonamide A Bioactive Precursors: In Vitro and In Vivo Evidences of the Inhibitory Activity of Solo F-OH During Angiogenesis” (Marine Drugs, 2019)
≈ marks a conversion by molar mass, not a printed value. Where two headings read alike, the source gives them in different places.

Experiments:
[1] = system: BAEC endothelial tubular-like structures formation; format: cell-based, bovine; conditions: 5 h
Description: (§1) Cellular suspensions of 5 × 10^4 BAE cells in serum-free DMEM were added to a 96-well plate coated with 50 µL of Matrigel (10.5 mg/mL) in the presence of the indicated treatments for 5 h and photographed with a microscope camera Nikon DS-Ri2 coupled to a Nikon Eclipse Ti microscope (Nikon, Tokyo, Japan). Each concentration was tested in duplicate, and staurosporine 2 µM was used as a routine positive assay control. For the disruption assay, tubular-like structures were formed following the same protocol for the control conditions; then, the indicated concentrations of Solo F–OH were added. After a further incubation time of 90 min, cultures were observed and photographed. Combretastatin-4-phosphate (CA4P) was used as positive control of the disruptor antiangiogenic drug.

[2] = system: bovine aortic endothelial cells (BAEC); conditions: 72 h of treatment, proliferating conditions; ref [17]; cited from earlier work
Text: Table 1 Summary of the results obtained in the primary in vitro screening assays for the complete series of synthetic solomonamide precursors. BAEC: bovine aortic endothelial cells, MIC: minimum inhibitory concentration. | column: IC50 ^1 (μM) in BAEC [17]

[3] = system: already formed BAEC tubular-like structures; assay: Vascular disruption assay in vitro (already formed tubular-like structures on Matrigel); format: cell-based, bovine; conditions: 90 min; even at a concentration 10-fold higher than the MIC of the tube formation assay
Description: as §1

[4] = system: BAEC invasion; assay: Cell invasion assay on Matrigel-coated transwells; format: cell-based, bovine; conditions: 20% FBS in lower chamber, 16 h, read-out: Concentration reaching 50% of inhibition of BAEC invasion
Description: The invasion of endothelial cells was assayed by using 8.0-μm pore size transwell inserts coated with 100 µL of Matrigel 0.12 mg/mL solution. 10^5 BAE cells, in the absence or presence of the indicated concentrations of Solo F–OH, were added to the upper chamber of the transwells in the absence of serum, and the lower chamber was filled with 20% FBS DMEM. After 16 h of incubation, invading cells were fixed in 4% paraformaldehyde and stained with a 1% crystal violet solution in 2% ethanol. Cells were photographed with a microscope camera Nikon DS-Ri2 coupled to a Nikon Eclipse Ti microscope (Nikon, Tokyo, Japan).

[5] = system: MMP-2; assay: Gelatin zymography of conditioned media and cell extracts of treated BAEC; format: cell-based, bovine; conditions: 20 μM, 24 h
Description: (§2) Zymographies for matrix metalloproteinases MMP-2 and MMP-9 activities were performed in both conditioned media and cellular extracts of endothelial (BAEC) and tumor (HT1080) cell lines as described in Fajardo et al.. Briefly, cells seeded in six-well plates were incubated in serum-free culture medium with 0.1% BSA containing 200 KIU of aprotinin/mL and the correspondent treatment. After 24 h of incubation, conditioned media were collected, and cell lysates were obtained. Duplicates were used to determine the cell number, and samples were normalized for equal loading. In order to detect the gelatinolytic activity of MMP-9 and MMP-2, samples were loaded in non-reducing SDS/PAGE gels containing gelatin (1 mg/mL). After electrophoresis, gels were incubated overnight at 37 °C in a substrate buffer (50 mM of Tris/HCl, pH 7.4, supplemented with 1% Triton X-100, 5 mM CaCl2, and 0.02% Na3N) and stained with Coomassie blue R-250. The bands of gelatinase activity could be detected as non-stained bands in a dark, stained background. The size and intensity of the bands were quantified using Image J software.

[6] = system: MMP-2; assay: Gelatin zymography of conditioned media and cell extracts of treated HT1080; format: cell-based, human; conditions: treated HT1080, 24 h
Description: as §2

[7] = system: MMP-9; assay: as above; format: cell-based, human; conditions: treated HT1080, 24 h
Description: as §2

[8] = target: T1, MMP-2 (Bos taurus, UniProt Q9GLE5); assay: In situ inhibition of MMP-2 gelatinase activity (compound in zymography incubation buffer); format: biochemical, bovine; conditions: 20 μM in substrate buffer; conditioned media of untreated BAEC
T1 construct: conditioned media and cellular extracts of endothelial (BAEC) and tumor (HT1080) cell lines; endogenous in cells; host or cells: BAEC (bovine aortic endothelial cells)
T1 sequence (Q9GLE5 111-661): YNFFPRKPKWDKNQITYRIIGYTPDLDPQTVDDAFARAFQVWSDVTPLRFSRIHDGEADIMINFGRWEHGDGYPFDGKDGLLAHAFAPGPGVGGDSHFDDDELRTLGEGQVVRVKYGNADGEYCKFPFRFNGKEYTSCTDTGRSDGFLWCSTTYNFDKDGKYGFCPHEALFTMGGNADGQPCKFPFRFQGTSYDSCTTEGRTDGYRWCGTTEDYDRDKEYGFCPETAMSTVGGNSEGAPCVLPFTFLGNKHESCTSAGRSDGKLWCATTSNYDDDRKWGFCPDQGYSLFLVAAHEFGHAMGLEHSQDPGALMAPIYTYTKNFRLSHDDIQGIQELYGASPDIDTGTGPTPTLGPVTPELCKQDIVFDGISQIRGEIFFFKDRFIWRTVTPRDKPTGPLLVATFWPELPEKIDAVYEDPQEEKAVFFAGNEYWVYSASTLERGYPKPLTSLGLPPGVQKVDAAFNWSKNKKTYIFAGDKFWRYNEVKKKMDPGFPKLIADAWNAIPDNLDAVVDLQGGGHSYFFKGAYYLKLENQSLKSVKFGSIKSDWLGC
Description: A variant of this method was used to obtain complementary information about the direct inhibition of the tested compound on MMP-2 gelatinase activity: samples of conditioned media of untreated BAEC were subjected to gelatin zymography and, after electrophoresis, 20 μM of Solo F–OH was added to the substrate buffer. Detection of the degrading bands and quantification were performed as described above.

[9] = system: subintestinal vessels (SIVs) of zebrafish embryos; assay: FGF-2 induced angiogenesis zebrafish yolk membrane (ZFYM) assay; format: in vivo, zebrafish (Danio rerio); conditions: FGF-2 2 ng, 24 h
[10] = system: Akt; assay: Western blot of Akt phosphorylation in serum-induced BAEC; format: cell-based, bovine; conditions: 20 μM, 1 h treatment of starved BAEC, then 10% FBS for 10 min, two independent experiments
Description: (§3) BAE cells were starved in serum-free for 16 h. After one-hour treatment with Solo F-OH at 10 and 20 μM in the same conditions, cells were induced with 10% of FBS for 10 min. Protein lysates were obtained in radioimmunoprecipitation assay buffer (RIPA) (50 mM of Tris, pH 7.4, 150 mM of NaCl, 1% Triton X-100, 0.25% sodium deoxycholate, 1 mM of EDTA) containing phosphatase activity inhibitors (30 mM of sodium fluoride, 1 mM of sodium orthovanadate, 30 mM of β-glycerophosphate) and protease activity inhibitors (Complete mini, Roche, Mannheim, Germany). Protein concentration was determined using the Lowry method. Samples were subjected to SDS-PAGE electrophoresis and transferred to nitrocellulose membranes. […] Following one hour of incubation with horseradish peroxidase-conjugated secondary antibodies (MERK; goat anti-rabbit IgG HRP Linked Whole Antibody #NA934V; goat anti-mouse IgG (whole molecule)–Peroxidase antibody #A4416) at room temperature, immunoreactive bands were detected with SuperSignal West Pico Chemiluminescent Substrate (Pierce, Rockford, USA) and quantified by ImageJ software. The phosphorylated/total protein ratios were expressed as the percentage of the ratio in serum-stimulated samples in the absence of Solo F–OH.

[11] = system: ERK1/2; assay: Western blot of ERK1/2 phosphorylation in serum-induced BAEC; format: cell-based, bovine; conditions: 20 μM, 1 h treatment of starved BAEC, then 10% FBS for 10 min, two independent experiments
Description: as §3

[12] = system: CAM of chicken embryos; conditions: 48 h; for Positive/Total: methylcellulose disc
Description: Fertilized chick eggs were incubated horizontally at 38 °C in a humidified incubator, windowed by day 3 of incubation, and processed by day 8. […] Then, methylcellulose discs were implanted onto the CAM, and the eggs were sealed with adhesive tape and returned to the incubator for 48 h. Negative controls were always made with DMSO mixed with the methylcellulose, and aeroplysinin-1 (3 nmol/CAM) was used as a routine positive control of antiangiogenic compound [47]. After the incubation, the CAM was examined under a stereomicroscope and photographed with a Nikon DS-Ri2 camera. The results were analyzed by two different observers, and the assay was scored positive when both of them reported a significant reduction of vessels in the treated area.

[13] = target: human recombinant VEGFR2 (Homo sapiens, UniProt P35968); assay: In vitro measure of VEGFR2 TK activity (luminescent VEGFR2 (KDR) Kinase Assay Kit); conditions: 20 μM, 45 min at 30 °C; mean ± SD of four independent measures
Sequence of human recombinant VEGFR2 (P35968 20-1356): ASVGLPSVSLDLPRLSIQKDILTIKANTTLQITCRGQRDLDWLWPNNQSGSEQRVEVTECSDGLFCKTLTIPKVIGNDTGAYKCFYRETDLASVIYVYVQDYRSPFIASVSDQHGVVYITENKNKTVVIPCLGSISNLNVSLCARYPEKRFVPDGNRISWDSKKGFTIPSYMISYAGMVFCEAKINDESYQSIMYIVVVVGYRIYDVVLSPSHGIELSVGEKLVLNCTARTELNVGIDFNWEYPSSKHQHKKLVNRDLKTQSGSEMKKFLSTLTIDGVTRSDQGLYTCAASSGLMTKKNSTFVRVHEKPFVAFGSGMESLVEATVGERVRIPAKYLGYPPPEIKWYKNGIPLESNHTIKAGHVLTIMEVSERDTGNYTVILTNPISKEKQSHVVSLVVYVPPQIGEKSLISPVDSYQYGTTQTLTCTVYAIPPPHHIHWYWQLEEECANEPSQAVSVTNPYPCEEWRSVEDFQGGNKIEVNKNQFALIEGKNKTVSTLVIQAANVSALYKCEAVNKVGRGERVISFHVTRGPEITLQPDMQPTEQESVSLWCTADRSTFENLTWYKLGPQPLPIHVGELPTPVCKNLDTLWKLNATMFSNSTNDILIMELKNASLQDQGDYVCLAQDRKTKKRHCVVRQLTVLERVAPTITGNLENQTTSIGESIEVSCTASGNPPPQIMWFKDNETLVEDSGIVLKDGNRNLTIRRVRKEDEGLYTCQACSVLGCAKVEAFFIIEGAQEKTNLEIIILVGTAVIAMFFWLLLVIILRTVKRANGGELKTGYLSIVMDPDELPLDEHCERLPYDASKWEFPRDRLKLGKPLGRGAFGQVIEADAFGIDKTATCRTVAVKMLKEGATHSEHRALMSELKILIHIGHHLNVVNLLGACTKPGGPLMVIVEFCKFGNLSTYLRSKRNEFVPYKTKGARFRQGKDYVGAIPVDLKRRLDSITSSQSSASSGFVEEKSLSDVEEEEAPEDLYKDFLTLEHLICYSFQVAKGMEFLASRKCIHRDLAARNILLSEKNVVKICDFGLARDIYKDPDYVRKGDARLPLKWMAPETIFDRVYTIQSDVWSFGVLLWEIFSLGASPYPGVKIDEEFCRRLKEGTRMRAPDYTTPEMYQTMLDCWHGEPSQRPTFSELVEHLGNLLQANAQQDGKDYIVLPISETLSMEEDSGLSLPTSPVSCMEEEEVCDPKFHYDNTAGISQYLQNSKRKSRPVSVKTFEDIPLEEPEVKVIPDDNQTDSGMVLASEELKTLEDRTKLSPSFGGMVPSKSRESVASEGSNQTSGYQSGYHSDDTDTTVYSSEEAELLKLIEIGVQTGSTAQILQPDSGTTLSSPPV

C[C@H]1NC(=O)CNC(=O)CCC/C=C/c2ccc(OCc3ccccc3)cc2NC1=O [Solo-4]
MIC Tubular Like-Structures Formation [1]: 50 µM (≈ 21.1 µg/mL)
IC50 [2]: 69.6 ± 12.5 µM

C[C@H]1NC(=O)CNC(=O)CC/C=C/Cc2ccccc2NC1=O [Solo-1]
MIC Tubular Like-Structures Formation [1]: >50 µM
IC50 [2]: > 100 µM

C[C@H]1NC(=O)CNC(=O)CC/C=C/C(O)c2ccccc2NC1=O (stereo partly drawn) [Solo-6]
MIC Tubular Like-Structures Formation [1]: >50 µM
IC50 [2]: > 100 µM

C[C@H]1NC(=O)CNC(=O)CC/C=C/Cc2ccc(OCc3ccccc3)cc2NC1=O [Solo-2]
MIC Tubular Like-Structures Formation [1]: >50 µM
IC50 [2]: 43.8 ± 1.2 µM

C[C@@H]1C(=O)NCC(=O)N[C@H](C)C(=O)Nc2cc(OCc3ccccc3)ccc2/C=C/C[C@@H]1O [Solo F–OH]
MIC Tubular Like-Structures Formation [1]: 1 µM (≈ 0.452 µg/mL)
Disruption of endothelial tubular-like structures already formed on Matrigel [3]: not able to disrupt
IC50 [4]: ~5 µM
Presence of MMP-2 in cell extracts and conditioned media of BAEC [5]: reduced
MMP-2 activity in HT1080 cells [6]: decreased
MMP-9 activity in HT1080 cells [7]: decreased
MMP-2 degradation bands with compound in incubation buffer [8]: unaffected
Score + / Total (mild response), % ([9]; compound 5 µM): 36.8%
Score + / Total (mild response), embryos ([9]; compound 5 µM): 7/19
Score ++ / Total (strong response), % ([9]; compound 5 µM): 15.8%
Score ++ / Total (strong response), embryos ([9]; compound 5 µM): 3/19
Score – / Total (no response to FGF-2), % ([9]; compound 5 µM): 47.4%
Score – / Total (no response to FGF-2), embryos ([9]; compound 5 µM): 9/19
Score + / Total (mild response), % ([9]; compound 10 µM): 39.1%
Score + / Total (mild response), embryos ([9]; compound 10 µM): 9/23
Score ++ / Total (strong response), % ([9]; compound 10 µM): 4.3%
Score ++ / Total (strong response), embryos ([9]; compound 10 µM): 1/23
Score – / Total (no response to FGF-2), % ([9]; compound 10 µM): 56.5%
Score – / Total (no response to FGF-2), embryos ([9]; compound 10 µM): 13/23
Phosphorylation of Akt in the presence of serum [10]: substantially reduced
Phosphorylation of ERK1/2 in the presence of serum [11]: substantially reduced
IC50 [2]: 18.1 ± 2.2 µM
Positive/Total ([12]; 0.1 nmol/CAM): 1/7
Positive/Total ([12]; 0.5 nmol/CAM): 2/7
Positive/Total ([12]; 1 nmol/CAM): 6/9
Positive/Total ([12]; 5 nmol/CAM): 9/12
Positive/Total ([12]; 10 nmol/CAM): 10/10
Dose reaching 50% of inhibition of CAM neovascularization ([12]; CAM assay): lower than 1 nmol/CAM
Remaining VEGFR2 kinase activity relative to vehicle control (DMSO) [13]: 84.5 ± 3.3%

C[C@H]1NC(=O)CNC(=O)CC/C=C/Cc2ccc(O)cc2NC1=O [Solo-5]
MIC Tubular Like-Structures Formation [1]: >50 µM
IC50 [2]: > 100 µM
